Measurements published in PubChem BioAssay (NCI).
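In this assay, cells in 96-well plates receive the compound at five concentrations for 48 hours. Endpoints are linearly interpolated between the surrounding concentrations. GI50 is the concentration that inhibits growth by half. The concentration for full growth arrest is given as TGI.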

Tests used:
Assay in all cases: NCI-60 cell line screen, 48 h
RXF 393 renal = system: RXF 393 renal
TK-10 renal = system: TK-10 renal
OVCAR-4 ovarian = system: OVCAR-4 ovarian
SW-620 colon = system: SW-620 colon
HCT-15 colon = system: HCT-15 colon
SK-OV-3 ovarian = system: SK-OV-3 ovarian
NCI/ADR-RES ovarian = system: NCI/ADR-RES ovarian
IGROV1 ovarian = system: IGROV1 ovarian
K-562 leukemia = system: K-562 leukemia
UO-31 renal = system: UO-31 renal
SK-MEL-5 melanoma = system: SK-MEL-5 melanoma
KM12 colon = system: KM12 colon
NCI-H23 lung = system: NCI-H23 lung
OVCAR-5 ovarian = system: OVCAR-5 ovarian

Structure (SMILES) | TGI (RXF 393 renal) [µM] | TGI (TK-10 renal) [µM] | TGI (OVCAR-4 ovarian) [µM] | TGI (SW-620 colon) [µM] | TGI (HCT-15 colon) [µM] | TGI (SK-OV-3 ovarian) [µM] | TGI (NCI/ADR-RES ovarian) [µM] | TGI (IGROV1 ovarian) [µM] | TGI (K-562 leukemia) [µM] | TGI (UO-31 renal) [µM] | TGI (SK-MEL-5 melanoma) [µM] | TGI (KM12 colon) [µM] | TGI (NCI-H23 lung) [µM] | TGI (OVCAR-5 ovarian) [µM] | GI50 (OVCAR-5 ovarian) [µM] | GI50 (SW-620 colon) [µM] | GI50 (NCI/ADR-RES ovarian) [µM] | GI50 (UO-31 renal) [µM] | GI50 (NCI-H23 lung) [µM]
O=c1c2cc([N+](=O)[O-])ccc2n2n1Cc1ccccc1C2 | > 100 | > 100 | > 100 | > 100 | > 100 | > 100 | > 100 | > 100 | > 100 | > 100 | > 100 | > 100 | > 100 |  |  |  |  |  | 
Cc1nn(-c2ccccc2)c2[nH]c(=S)cnc12 | > 100 | > 100 | > 100 | > 100 |  | > 100 | > 100 | > 100 | > 100 | > 100 |  |  | > 100 | > 100 |  |  |  |  | 
N#Cc1sc2c(c1OC(=O)c1cccs1)c(=O)n(-c1ccccc1)c(=S)n2-c1ccccc1 | 31.9 | > 100 | 73.5 | 84.6 | 40 | > 100 | 50.1 | 39.4 | 83.4 | 32.7 | 29.5 | 43.6 | 93.5 |  |  |  |  |  | 
CCSC1=N/C(=C\c2ccco2)C(Cl)=N1 |  | > 100 |  | > 100 | > 100 | > 100 | > 100 | > 100 | > 100 | > 100 | > 100 | > 100 | > 100 | > 100 |  |  |  |  | 
COc1ccc(NC(C)=O)cc1C1CCC(=O)N1 (stereo not given) |  | > 100 | > 100 | > 100 | > 100 | > 100 | > 100 | > 100 | > 100 | > 100 | > 100 | > 100 | > 100 | > 100 |  |  |  |  | 
Fc1ccccc1-c1nn2c(C34CC5CC(CC(C5)C3)C4)nnc2s1 | > 100 |  | > 100 | > 100 | > 100 | > 100 | > 100 | > 100 | > 100 | > 100 | > 100 |  | > 100 | > 100 |  |  |  |  | 
C[C@H]1C[C@H](C)c2ccccc2N(C)C1=Nc1ccccc1 | 92.2 | 55.6 | > 100 | > 100 | > 100 |  | > 100 | 78 | > 100 | > 100 | 31.3 | > 100 | 50 | 78 |  |  |  |  | 
C=C1CC(C)(COc2ccc3ccc(=O)oc3c2)OC1=O (stereo not given) |  | 4.29 | 11.1 | 4.79 | 8.71 | 21.4 | 11.2 | 10.8 | 32.1 | 29.5 | 6.65 | 17.6 | 12.3 | 22.1 |  |  |  |  | 
CN(C)CCCCN1c2ccccc2Sc2cc(N=[N+]=[N-])ccc21 | 10.6 | 4.86 | 6.35 | 3.56 | 4.53 | 5.1 | 4.07 | 3.43 |  | 3.66 | 3.18 | 3.17 | 22.4 | 3.76 |  |  |  |  | 
COC(=O)c1ccccc1/C=C1\Cc2cc(C)cc(C)c2C1=O | > 100 | > 100 |  | > 100 | > 100 |  |  | > 100 | > 100 |  | > 100 | > 100 | > 100 | > 100 |  |  |  |  | 
COc1ccc2cc(/C=N\NC(=O)Nc3cccc4ccccc34)ccc2c1 | > 100 | 56.5 | 72.1 | > 100 | > 100 |  | > 100 | > 100 | 36.5 | > 100 | > 100 | > 100 | > 100 | > 100 |  |  |  |  | 
CCCCCCCCCCCCC(O)C1CCC(C(O)CCCCCCC(O)CCCCCCCC2=CC(C)OC2=O)O1 (stereo not given) | 83 | > 100 | > 100 | > 100 | > 100 |  | > 100 | > 100 | 40.6 | 35 | 22.2 | > 100 | > 100 | > 100 | > 100 | 45.8 | 31.5 | 17 | 13.3
CNn1c(C)n[nH]c1=O |  | > 100 | > 100 | > 100 | > 100 | > 100 | > 100 | > 100 | > 100 | > 100 | > 100 | > 100 | > 100 | > 100 |  |  |  |  | 
OC(C/C(=N\N1CCCCC1)c1cccs1)(C(F)(F)F)C(F)(F)F | > 10 | > 10 | > 10 | > 10 | > 10 | > 10 | > 10 | > 10 | > 10 | > 10 | > 10 | > 10 | > 10 |  |  |  |  |  | 
COc1ccc2c(c1)CCc1[nH]c3ccccc3c1CCCC2 |  | > 10 | > 10 | > 10 | > 10 | > 10 | > 10 | > 10 | > 10 |  | > 10 | > 10 | > 10 | > 10 |  |  |  |  | 
O=c1oc2ccccc2nc1/C=C(\O)c1ccc([N+](=O)[O-])cc1 | > 100 | > 100 | > 100 |  | > 100 | > 100 | > 100 | > 100 | > 100 | > 100 | > 100 | > 100 | > 100 | > 100 |  |  |  |  | 
COc1cc(C2c3cc4c(cc3OC(Nc3ccccc3)C2C)OCO4)cc(OC)c1OC (stereo not given) | > 100 | > 100 | > 100 | > 100 | > 21.6 | > 100 | > 100 | > 100 | > 100 | > 100 |  | > 100 | > 100 | > 100 |  |  |  |  | 
O=[N+]([O-])c1ccc2[nH]ncc2c1Cl | > 100 | > 100 | 85.5 | > 100 | > 100 | > 100 | > 100 | 39.1 | > 100 |  | 27 | > 100 |  | 62.5 |  |  |  |  | 
